Holding throughout (test): NCI tumour cell line growth inhibition, 48 h
In assay [1] the test system is A549 NSCLC.
The subject of assay [2] is ACHN renal.
Assay [3] has as its system CCRF-CEM leukemia.
In assay [4] the test system is COLO 205 colon.
For assay [5], the system named is DU-145 prostate.
Assay [6] deals with HCT-15 colon.
Assay [7] deals with HL-60(TB) leukemia.
For assay [8], the system named is M14 melanoma.
In assay [9] the test system is MALME-3M melanoma.
In assay [10] the test system is MDA-N.
Assay [11] deals with NCI-H522 lung.
Assay [12] relates to SF-268 CNS.
Assay [13] has as its system SK-MEL-2 melanoma.
Assay [14] has as its system SK-MEL-5 melanoma.
For assay [15], the system named is SN12C renal.
In assay [16] the test system is SNB-19 CNS.
Assay [17] deals with SNB-75 CNS.
Assay [18] concerns T-47D breast.
The subject of assay [19] is U251 CNS.
Assay [20] concerns NCI-H226 lung.

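Each compound was tested at five concentrations against cells in 96-well plates for 48 hours. TGI: total growth inhibition.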

On to `COC(=O)/C=C\Sc1ccn(/C=C\C(=O)OC)c(=S)n1`, for which the TGI was 50.7 µM in assay [1]; 32.2 µM in assay [2]; over 100 µM in assay [3]; over 100 µM in [4]; over 100 µM in assay [5]; 42.6 µM in [6]. The TGI in assay [7] was over 100 µM; in assay [8], over 100 µM; in [9] it was 53.9 µM; in assay [10] it was over 100 µM; in assay [11], 31.4 µM; in [12], 65.9 µM. Moreover, the TGI in assay [13] amounted to 46.9 µM; in assay [14], 80.6 µM; in assay [15] it was 82.9 µM; in [16], 41.6 µM; in assay [17], 43.1 µM; in assay [18], 46.1 µM. The same compound had a TGI in assay [19] of 39.9 µM.
In the case of `CC1(C)OP23(NC(=O)OC2(C(F)(F)F)c2ccccc2O3)OC1(C)C` (centres undefined), the TGI in assay [1], in [2], in assay [3], in [6], in assay [7] and in [8] was over 100 µM each time. Further, the TGI in [9], in assay [20], in [11], in assay [12], in [13] and in assay [14] was over 100 µM each time. Further, the TGI in assay [15], in assay [16], in assay [17] and in assay [19] was over 100 µM throughout.
In the case of `CN(C)c1ccc(N2C(=S)SC(=Nc3ccccc3)C2=Nc2ccccc2)cc1`, the TGI in assay [3], in [4], in assay [5], in assay [6], in assay [7] and in assay [8] was over 100 µM throughout. Moreover, the TGI in assay [9], in [10], in assay [20], in assay [11], in [13] and in assay [14] was over 100 µM in each case. The TGI in [15], in assay [16], in [17], in [18] and in [19] was over 100 µM in each case.
Consider `O=C(CCCn1cnc([N+](=O)[O-])n1)NCCn1ccnc1[N+](=O)[O-]`, for which the TGI in [1], in [2], in assay [3], in assay [4], in assay [5] and in [6] was over 100 µM each time. Also, the TGI in assay [7], in [8], in assay [10], in assay [20], in assay [11] and in assay [12] was over 100 µM each time. The TGI in assay [13], in assay [14], in assay [17], in [18] and in assay [19] was over 100 µM each time.

The values are drawn from PubChem BioAssay (NCI).
